This is an account of results in PMC7429318 (Journal of controlled release : official journal of the …, 2020).

The subject of the data set is MDCKII cells. The data set can be described thus: Transwell permeability assay across MDCKII monolayer. Format: in vitro ADME, canine. The following applies: transwell (2D), LY 100 μM.

For Lucifer yellow CH-lithium salt [LY], the “permeability in transwell assay (2D)” value is “about 3 × 10^−7 cm s^−1”.
